Experiments:
Type in all cases: cell-based
human TLR8 = target: T1, human TLR8 (Homo sapiens, UniProt Q9NR97); assay: TLR7/8/9 Inhibition Reporter Assays (TLR8); conditions: HEK-Blue cells overexpressing human TLR8, SEAP reporter, stimulated with TLR8 ligand R848
T1 construct: host or cells: HEK-Blue cells (HEK293-derived reporter line)
T1 sequence (Q9NR97 27-1041): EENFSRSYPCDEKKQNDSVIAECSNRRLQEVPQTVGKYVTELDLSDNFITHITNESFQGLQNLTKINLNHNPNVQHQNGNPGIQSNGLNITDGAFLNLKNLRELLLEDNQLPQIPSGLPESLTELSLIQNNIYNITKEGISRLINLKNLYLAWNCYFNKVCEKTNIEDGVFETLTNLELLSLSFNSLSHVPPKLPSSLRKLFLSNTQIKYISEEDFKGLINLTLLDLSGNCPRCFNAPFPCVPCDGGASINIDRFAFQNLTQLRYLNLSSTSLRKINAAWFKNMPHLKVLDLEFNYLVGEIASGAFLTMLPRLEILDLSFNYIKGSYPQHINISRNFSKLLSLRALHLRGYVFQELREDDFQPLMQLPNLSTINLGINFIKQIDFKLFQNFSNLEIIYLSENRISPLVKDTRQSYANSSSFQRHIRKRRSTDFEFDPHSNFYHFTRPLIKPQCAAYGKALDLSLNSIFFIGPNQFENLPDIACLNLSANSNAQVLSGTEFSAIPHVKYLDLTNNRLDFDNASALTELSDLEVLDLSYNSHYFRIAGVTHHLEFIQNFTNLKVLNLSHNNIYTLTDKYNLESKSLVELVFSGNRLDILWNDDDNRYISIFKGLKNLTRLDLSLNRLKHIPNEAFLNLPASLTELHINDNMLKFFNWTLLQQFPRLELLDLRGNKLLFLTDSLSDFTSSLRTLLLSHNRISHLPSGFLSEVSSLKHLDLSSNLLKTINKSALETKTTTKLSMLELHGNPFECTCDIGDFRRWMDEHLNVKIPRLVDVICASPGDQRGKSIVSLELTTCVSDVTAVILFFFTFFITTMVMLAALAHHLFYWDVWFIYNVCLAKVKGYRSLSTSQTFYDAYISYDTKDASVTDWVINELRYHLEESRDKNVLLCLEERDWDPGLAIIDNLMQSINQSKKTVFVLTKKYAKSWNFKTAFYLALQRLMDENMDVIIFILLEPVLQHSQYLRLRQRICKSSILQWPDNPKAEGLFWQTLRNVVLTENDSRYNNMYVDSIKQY
Description: (§1) HEK-Blue™-cells (Invivogen) overexpressing human TLR7, TLR8 or TLR9 receptors were used for screening inhibitors of these receptors using an inducible SEAP (secreted embryonic alkaline phosphatase) reporter gene under the control of the IFN-β minimal promoter fused to five NF-κB and AP-1-binding sites. Cells are seeded into Greiner 384 well plates (15000 cells per well) that are predispensed (by ECHO) with testing compounds in DMSO to yield a final dose response concentration range of 0.85 nM-[…]. After a 60 minute compound pre-treatment in 37° C. incubator, the cells are then stimulated with a TLR7 ligand (gardiquimod at a final concentration of […]), TLR8 ligand (R848 at a final concentration of […]) or TLR9 ligand (ODN2006 at a final concentration of 200 nM) to activate NF-κB and AP-1 which induce the production of SEAP. After a 22 hour incubation at 37° C., 5% CO2, SEAP levels are determined with the addition of HEK-Blue™ Detection reagent (Invivogen), a cell culture medium that allows for detection of SEAP, according to manufacturer's specifications. The percent inhibition is determined as the % reduction in the HEK-Blue signal present in wells treated with agonist plus DMSO alone compared to wells treated with a known inhibitor.

human TLR7 = target: T2, human TLR7 (Homo sapiens, UniProt Q9NYK1); assay: TLR7/8/9 Inhibition Reporter Assays (TLR7); conditions: HEK-Blue cells overexpressing human TLR7, SEAP reporter, stimulated with TLR7 ligand gardiquimod
T2 construct: host or cells: HEK-Blue cells (HEK293-derived reporter line)
T2 sequence (Q9NYK1 27-1049): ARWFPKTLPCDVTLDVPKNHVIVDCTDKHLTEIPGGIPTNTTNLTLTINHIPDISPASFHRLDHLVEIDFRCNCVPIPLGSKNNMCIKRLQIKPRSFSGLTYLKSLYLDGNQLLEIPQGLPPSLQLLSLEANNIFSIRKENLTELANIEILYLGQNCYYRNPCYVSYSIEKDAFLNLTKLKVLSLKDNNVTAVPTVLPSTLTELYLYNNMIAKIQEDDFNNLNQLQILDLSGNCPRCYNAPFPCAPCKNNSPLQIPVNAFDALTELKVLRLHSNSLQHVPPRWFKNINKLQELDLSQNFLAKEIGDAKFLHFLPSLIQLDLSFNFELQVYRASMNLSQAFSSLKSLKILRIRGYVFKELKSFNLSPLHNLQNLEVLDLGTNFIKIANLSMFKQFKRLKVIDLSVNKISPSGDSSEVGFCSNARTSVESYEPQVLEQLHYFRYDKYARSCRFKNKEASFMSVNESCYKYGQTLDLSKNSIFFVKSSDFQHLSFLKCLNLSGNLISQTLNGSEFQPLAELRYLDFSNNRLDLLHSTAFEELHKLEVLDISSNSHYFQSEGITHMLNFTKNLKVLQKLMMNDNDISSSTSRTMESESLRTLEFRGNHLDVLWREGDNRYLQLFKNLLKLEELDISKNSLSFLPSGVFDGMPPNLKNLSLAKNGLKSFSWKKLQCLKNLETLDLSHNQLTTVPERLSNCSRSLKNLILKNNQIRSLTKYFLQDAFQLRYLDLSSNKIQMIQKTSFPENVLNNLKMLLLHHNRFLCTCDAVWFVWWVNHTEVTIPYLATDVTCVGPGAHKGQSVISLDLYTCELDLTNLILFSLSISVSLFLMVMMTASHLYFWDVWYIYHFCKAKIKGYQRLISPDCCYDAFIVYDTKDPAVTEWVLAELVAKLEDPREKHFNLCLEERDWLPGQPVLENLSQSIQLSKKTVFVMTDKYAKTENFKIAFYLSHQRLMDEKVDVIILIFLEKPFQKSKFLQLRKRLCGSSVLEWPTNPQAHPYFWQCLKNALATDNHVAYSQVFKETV
Description: as §1

human TLR9 = target: T3, human TLR9 (Homo sapiens, UniProt Q9NR96); assay: TLR7/8/9 Inhibition Reporter Assays (TLR9); conditions: HEK-Blue cells overexpressing human TLR9, SEAP reporter, stimulated with TLR9 ligand ODN2006
T3 construct: host or cells: HEK-Blue cells (HEK293-derived reporter line)
T3 sequence (Q9NR96 26-1032): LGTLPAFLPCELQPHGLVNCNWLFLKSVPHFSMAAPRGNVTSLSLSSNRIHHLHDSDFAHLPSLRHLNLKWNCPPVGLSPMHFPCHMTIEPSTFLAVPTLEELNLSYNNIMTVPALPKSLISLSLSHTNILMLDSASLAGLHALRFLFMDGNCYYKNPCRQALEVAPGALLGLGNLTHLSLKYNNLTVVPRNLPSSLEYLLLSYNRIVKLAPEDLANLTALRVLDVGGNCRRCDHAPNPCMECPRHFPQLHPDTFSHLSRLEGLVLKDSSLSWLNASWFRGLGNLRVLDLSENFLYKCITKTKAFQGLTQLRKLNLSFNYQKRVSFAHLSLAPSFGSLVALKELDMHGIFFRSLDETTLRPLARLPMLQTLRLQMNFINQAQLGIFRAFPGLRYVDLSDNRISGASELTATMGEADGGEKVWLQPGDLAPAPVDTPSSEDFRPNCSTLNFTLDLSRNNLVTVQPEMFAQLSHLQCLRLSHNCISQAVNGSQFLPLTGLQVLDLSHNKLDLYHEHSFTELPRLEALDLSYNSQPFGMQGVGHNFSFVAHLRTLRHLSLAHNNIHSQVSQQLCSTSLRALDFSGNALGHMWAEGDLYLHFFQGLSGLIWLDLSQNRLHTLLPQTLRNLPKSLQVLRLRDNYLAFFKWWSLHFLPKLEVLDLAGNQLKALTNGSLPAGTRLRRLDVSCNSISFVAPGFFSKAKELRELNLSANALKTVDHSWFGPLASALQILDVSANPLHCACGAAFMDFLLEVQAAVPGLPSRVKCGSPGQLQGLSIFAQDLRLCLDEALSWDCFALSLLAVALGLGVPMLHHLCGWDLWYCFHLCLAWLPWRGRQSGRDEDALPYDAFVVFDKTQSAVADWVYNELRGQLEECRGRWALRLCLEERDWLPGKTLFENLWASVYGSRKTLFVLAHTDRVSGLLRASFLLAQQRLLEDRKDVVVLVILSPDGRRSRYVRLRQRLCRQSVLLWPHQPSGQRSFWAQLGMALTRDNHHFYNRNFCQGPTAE
Description: as §1

| IC50 (human TLR8) | IC50 (human TLR7) | IC50 (human TLR9) | SMILES |
| --- | --- | --- | --- |
| 1100 nM | 3400 nM | 330 nM | CC(C)CN1C[C@@H]2CN(c3ccc(-c4cc5c(cn4)nc(-c4ccc(S(C)(=O)=O)cc4)n5C4CC4)cc3)C[C@@H]2C1 [Example 88, 1-cyclopropyl-6-(4-((3aR,6aS)-5-isobutylhexahydropyrrolo[3,4-c]pyrrol-2(1H)-yl)phenyl)-2-(4-(methylsulfonyl)phenyl)-1H-imidazo[4,5-c]pyridine] |
| 15000 nM | 590 nM | 61 nM | COc1ccc(-c2nc3c(C)nc(-c4ccc(N5CCC6(CC5)CN(C5CCC5)C6)cc4)cc3n2C)cc1OC [Example 80, 6-(4-(2-cyclobutyl-2,7-diazaspiro[3.5]nonan-7-yl)phenyl)-2-(3,4-dimethoxyphenyl)-1,4-dimethyl-1H-imidazo[4,5-c]pyridine] |
| 28000 nM | 890 nM | 97 nM | COc1ccc(-c2nc3c(C)nc(-c4ccc(N5CCC6(CC5)CN(CC(C)C)C6)cc4)cc3n2C)cc1OC [Example 75, 2-(3,4-dimethoxyphenyl)-6-(4-(2-isobutyl-2,7-diazaspiro[3.5]nonan-7-yl)phenyl)-1,4-dimethyl-1H-imidazo[4,5-c]pyridine] |
| > 50000 nM | 1500 nM | 1000 nM | COc1ccc(-c2nc3c(C)nc(-c4ccc(N5CCC6(CC5)CN(CC(C)(C)O)C6)cc4)cc3n2C)cc1OC [Example 92, 1-(7-(4-(2-(3,4-dimethoxyphenyl)-1,4-dimethyl-1H-imidazo[4,5-c]pyridin-6-yl)phenyl)-2,7-diazaspiro[3.5]nonan-2-yl)-2-methylpropan-2-ol] |

The remaining lines, values behind:

| SMILES | IC50 (human TLR8) | IC50 (human TLR7) | IC50 (human TLR9) |
| --- | --- | --- | --- |
| Cc1cc(-c2nc3c(C)nc(-c4ccc(N5CCN(C(C)C)CC5)cc4)cc3n2C)cc(C)n1 [Example 13, 2-(2,6-dimethylpyridin-4-yl)-6-(4-(4-isopropylpiperazin-1-yl)phenyl)-1,4-dimethyl-1H-imidazo[4,5-c]pyridine] | > 50000 nM | 1900 nM | 410 nM |
| Cc1nc(-c2ccc(C3CCNCC3)cc2)cc2c1nc(-c1ccc(S(C)(=O)=O)cc1)n2C [Example 27, 1,4-dimethyl-2-(4-(methylsulfonyl)phenyl)-6-(4-(piperidin-4-yl)phenyl)-1H-imidazo[4,5-c]pyridine] | 46000 nM | 20000 nM | 1100 nM |
| CS(=O)(=O)c1ccc(-c2nc3cnc(-c4ccc(N5CCN(CCN6CCOCC6)CC5)cc4)cc3n2C2CC2)cc1 [Example 56, 4-(2-(4-(4-(1-cyclopropyl-2-(4-(methylsulfonyl)phenyl)-1H-imidazo[4,5-c]pyridin-6-yl)phenyl)piperazin-1-yl)ethyl)morpholine] | 46000 nM | > 50000 nM | 880 nM |
| COc1ccc(-c2nc3cnc(-c4ccc(N5CCC6(CC5)CN(CC(C)C)C6)cc4)cc3n2C2CC2)cc1OC [Example 61, 1-cyclopropyl-2-(3,4-dimethoxyphenyl)-6-(4-(2-isobutyl-2,7-diazaspiro[3.5]nonan-7-yl)phenyl)-1H-imidazo[4,5-c]pyridine] | 12000 nM | 12000 nM | 160 nM |
| COc1cc(-c2nc3c(C)nc(-c4ccc(N5CCN(CC(C)C)CC5)cc4)cc3n2C)cn2ncnc12 [Example 10, 6-(6-(4-(4-isobutylpiperazin-1-yl)phenyl)-1,4-dimethyl-1H-imidazo[4,5-c]pyridin-2-yl)-8-methoxy-[1,2,4]triazolo[1,5-a]pyridine] | > 50000 nM | 9600 nM | 1700 nM |
| Cc1nc(-c2ccc(N3CCC4(CC3)CN(CC(C)C)C4)cc2)cc2c1nc(-c1ccc(S(C)(=O)=O)cc1)n2C [Example 73, 6-(4-(2-isobutyl-2,7-diazaspiro[3.5]nonan-7-yl)phenyl)-1,4-dimethyl-2-(4-(methylsulfonyl)phenyl)-1H-imidazo[4,5-c]pyridine] | 3900 nM | 890 nM | 110 nM |
| Cc1nc(-c2ccc(N3C[C@@H]4CN(C5CCC5)C[C@@H]4C3)cc2)cc2c1nc(-c1ccc(S(C)(=O)=O)cc1)n2C [Example 69, 6-(4-((3aR,6aS)-5-cyclobutylhexahydropyrrolo[3,4-c]pyrrol-2(1H)-yl)phenyl)-1,4-dimethyl-2-(4-(methylsulfonyl)phenyl)-1H-imidazo[4,5-c]pyridine] | 5400 nM | 2800 nM | 37 nM |

From US20250163054A1, “SUBSTITUTED BICYCLIC HETEROARYL COMPOUNDS USEFUL AS INHIBITORS OF TLR9” (Bristol-Myers Squibb Company, priority 2022, published 2025)
